Test results reported in PMC6152667, “Synthesis and Evaluation of Antimicrobial Activity of [R4W4K]-Levofloxacin and [R4W4K]-Levofloxacin-Q Conjugates” (Molecules : A Journal of Synthetic Chemistry and Natural …, 2017).
Converted amounts (≈) assume the structure as drawn. Like-named read-outs stand apart in the source and are kept apart here. Side chains are listed from the residue outwards. Peptide text beside a SMILES is read from it. * marks the point of attachment. Levofloxacinoyl = C[C@H]1COc2c(N3CCN(C)CC3)c(F)cc3c(=O)c(C(=O)*)cn1c23; X1 = C[C@H]1COc2c(F)c(F)cc3c(=O)c(C(=O)*)cn1c23; βAla = NCCC(=O)O

Tests used:
[1] = test system: Klebsiella pneumoniae (Clinical strain (levofloxacin-susceptible)); assay: microbe, parasite or virus in culture; format: cell-based; details: for MIC: Klebsiella pneumoniae
Protocol: (§1) The antibacterial activities of synthesized peptides were evaluated against two bacterial strains and compared to a control antibiotic and [R4W4]. Gram-negative bacteria: Klebsiella pneumoniae (Clinical strain (levofloxacin-susceptible)) and the Gram-positive bacteria: Methicillin-Resistant Staphylococcus aureus (Los Angeles County (LAC) clone) were employed for the determination of antimicrobial activities of peptides. MRSA and Klebsiella pneumoniae were inoculated into 5 mL of Mueller Hinton […] (MH) at 37 °C and shaken in an orbital shaker at 175 rpm overnight. The cultured suspension was diluted in 5 mL normal saline until it achieved 0.5 McFarland (1.5 × 10^8 bacterial cell density) turbidity. An amount of 40 μL of the McFarland solution was added to […] of MH media to make 1/150 dilution. Most peptides were dissolved in distilled water (except some of them that were dissolved in 50 mM NH4HCO3 to improve the solubility) to make 256 μg/mL solutions. Minimal inhibitory concentrations (MICs) were determined using the broth microdilution method. Briefly, 200 μL of all tested peptides and controls was added in the first column of the 96-well plate. Then, by adding 100 μL of media to the other wells and performing a 2-fold dilution in each well, serial dilution of the compound was prepared. After a series of 2-fold dilutions, 100 μL of bacterial solution was added to all wells, and then the microliter plates were incubated statically at 37 °C overnight. MICs were determined as the minimal concentration at which no visible bacterial growth was present. All experiments were conducted in triplicate.

[2] = test system: Methicillin-Resistant Staphylococcus aureus (Los Angeles County (LAC) clone); assay: microbe, parasite or virus in culture; format: cell-based; details: for MIC: Staphylococcus aureus, MRSA, read-out: MIC, Methicillin-Resistant Staphylococcus aureus (MRSA)
Protocol: as §1

[3] = test system: Methicillin-resistant Staphylococcus aureus (MRSA); parameters: method as in PMID 25157458; details: previously reported; cited from earlier work
Text: The development of a new class of antibiotics to fight bacterial resistance is a time-consuming effort associated with high-cost and commercial risks. Thus, modification, conjugation or combination of existing antibiotics to enhance their efficacy is a suitable strategy. […] Herein, we hypothesized that conjugation or combination of the amphiphilic cyclic peptide [R4W4] with levoflox ... || Antimicrobial peptides (AMPs) are vital parts of the innate immune system, which usually act at the level of the plasma membrane of the bacterial cell. AMPs have a unique mode of action, which is mostly related to their cationic and amphipathic properties, making them capable of interacting with microbial membranes. Accordingly, AMPs have attracted increasing attention as potential candidates against resistant bacteria. […] T ...

Escherichia coli = test system: Escherichia coli; parameters: method as in PMID 25157458; details: previously reported; cited from earlier work
[4] = broth microdilution, Mueller Hinton media, 2-fold dilutions, 37 °C overnight, no visible growth, triplicate, N/A = not active
[5] = broth microdilution, Mueller Hinton media, 2-fold dilutions, 37 °C overnight, no visible growth, triplicate, N/A = not active, listed as levofloxacin-Q
[6] = Clinical strain (levofloxacin-susceptible)

C[C@@H](O)[C@H]1C(=O)N2C(C(=O)O)=C(S[C@@H]3CN[C@H](C(=O)N(C)C)C3)[C@H](C)[C@H]12 [Meropenem]
MIC [1, 4]: 1 mg/L (≈ 2.61 µM)

C[C@H]1COc2c(N3CCN(C)CC3)c(F)cc3c(=O)c(C(=O)O)cn1c23 [Levofloxacin (1), Levofloxacin]
MIC [1, 4]: 4 mg/L (≈ 11.1 µM)
MIC, Klebsiella pneumoniae [1, 4]: 4 mg/L (≈ 11.1 µM)
MIC [2, 4]: 2 mg/L (≈ 5.53 µM)
MIC, Methicillin-Resistant Staphylococcus aureus (MRSA) [2, 4]: 2 mg/L (≈ 5.53 µM)

C[C@H]1COc2c(F)c(F)cc3c(=O)c(C(=O)O)cn1c23 [Levofloxacin-Q (2), Levofloxacin-Q acid]
MIC, Klebsiella pneumoniae [1, 4]: >128 mg/L
MIC, Klebsiella pneumoniae [1, 5]: > 128 mg/L
MIC, Methicillin-Resistant Staphylococcus aureus (MRSA) [2, 4]: >128 mg/L
MIC, Methicillin-Resistant Staphylococcus aureus (MRSA) [2, 5]: > 128 mg/L

N=C(N)NCCC[C@@H]1NC(=O)[C@H](CCCNC(=N)N)NC(=O)[C@H](CCCNC(=N)N)NC(=O)[C@H](Cc2c[nH]c3ccccc23)NC(=O)[C@H](Cc2c[nH]c3ccccc23)NC(=O)[C@H](Cc2c[nH]c3ccccc23)NC(=O)[C@H](Cc2c[nH]c3ccccc23)NC(=O)[C@H](CCCNC(=N)N)NC1=O [[R4W4] (3)] (cyclo(RRRRWWWW))
MIC, Klebsiella pneumoniae [1, 6]: 16 mg/L (≈ 11.7 µM)
MIC, Methicillin-Resistant Staphylococcus aureus (MRSA) ([2]; Methicillin-Resistant (Los Angeles County (LAC) clone)): 4 mg/L (≈ 2.92 µM)
MIC against MRSA [3]: 2.97 mg/L

C[C@H]1COc2c(N3CCN(C)CC3)c(F)cc3c(=O)c(C(=O)NCCC(=O)NCCCC[C@@H]4NC(=O)[C@H](Cc5c[nH]c6ccccc56)NC(=O)[C@H](Cc5c[nH]c6ccccc56)NC(=O)[C@H](Cc5c[nH]c6ccccc56)NC(=O)[C@H](Cc5c[nH]c6ccccc56)NC(=O)[C@H](CCCNC(=N)N)NC(=O)[C@H](CCCNC(=N)N)NC(=O)[C@H](CCCNC(=N)N)NC(=O)[C@H](CCCNC(=N)N)NC4=O)cn1c23 [Conjugate cyclic [R4W4]-levofloxacin (8)] (cyclo(K([βAla-Levofloxacinoyl])RRRRWWWW))
MIC, Methicillin-Resistant Staphylococcus aureus (MRSA) [2, 4]: 32 mg/L (≈ 16.7 µM)

C[C@H]1COc2c(F)c(F)cc3c(=O)c(C(=O)NCCC(=O)NCCCC[C@@H]4NC(=O)[C@H](Cc5c[nH]c6ccccc56)NC(=O)[C@H](Cc5c[nH]c6ccccc56)NC(=O)[C@H](Cc5c[nH]c6ccccc56)NC(=O)[C@H](Cc5c[nH]c6ccccc56)NC(=O)[C@H](CCCNC(=N)N)NC(=O)[C@H](CCCNC(=N)N)NC(=O)[C@H](CCCNC(=N)N)NC(=O)[C@H](CCCNC(=N)N)NC4=O)cn1c23 (cyclo(K([βAla-X1])RRRRWWWW))
MIC, Klebsiella pneumoniae [1, 4]: 32 mg/L (≈ 17.5 µM)
MIC, Methicillin-Resistant Staphylococcus aureus (MRSA) [2, 4]: 8 mg/L (≈ 4.37 µM)

C[C@H]1COc2c(N3CCN(C)CC3)c(F)cc3c(=O)c(C(=O)NCCC(=O)NCCCC[C@H](N)C(=O)N[C@@H](CCCNC(=N)N)C(=O)N[C@@H](CCCNC(=N)N)C(=O)N[C@@H](CCCNC(=N)N)C(=O)N[C@@H](CCCNC(=N)N)C(=O)N[C@@H](Cc4c[nH]c5ccccc45)C(=O)N[C@@H](Cc4c[nH]c5ccccc45)C(=O)N[C@@H](Cc4c[nH]c5ccccc45)C(=O)N[C@@H](Cc4c[nH]c5ccccc45)C(=O)O)cn1c23 [Conjugate linear (R4W4)-levofloxacin (6)] (H-K([βAla-Levofloxacinoyl])RRRRWWWW-OH)
MIC, Klebsiella pneumoniae [1, 6]: >128 mg/L
MIC, Methicillin-Resistant Staphylococcus aureus (MRSA) [2, 4]: 64 mg/L (≈ 33.2 µM)

CN(C)[C@@H]1C(O)=C(C(N)=O)C(=O)[C@@]2(O)C(O)=C3C(=O)c4c(O)cccc4[C@@](C)(O)[C@H]3C[C@@H]12 [tetracycline]
MIC against Escherichia coli (Escherichia coli): 2 mg/L (≈ 4.5 µM)
MIC against MRSA [3]: 0.5 mg/L

CN[C@H](CC(C)C)C(=O)N[C@H]1C(=O)N[C@@H](CC(N)=O)C(=O)N[C@H]2C(=O)N[C@H]3C(=O)N[C@H](C(=O)N[C@H](C(=O)O)c4cc(O)cc(O)c4-c4cc3ccc4O)[C@H](O)c3ccc(c(Cl)c3)Oc3cc2cc(c3O[C@@H]2O[C@H](CO)[C@@H](O)[C@H](O)[C@H]2O[C@H]2C[C@](C)(N)[C@H](O)[C@H](C)O2)Oc2ccc(cc2Cl)[C@H]1O [Vancomycin]
MIC [2]: 1 mg/L (≈ 0.69 µM)
